{"source": "paper PMC6467267", "about": "(Chemical research in toxicology, 2019)", "key": {"[1]": {"biological_target": "TfIMPDH (Tritrichomonas foetus, UniProt P50097)", "sequence (P50097 whole entry)": "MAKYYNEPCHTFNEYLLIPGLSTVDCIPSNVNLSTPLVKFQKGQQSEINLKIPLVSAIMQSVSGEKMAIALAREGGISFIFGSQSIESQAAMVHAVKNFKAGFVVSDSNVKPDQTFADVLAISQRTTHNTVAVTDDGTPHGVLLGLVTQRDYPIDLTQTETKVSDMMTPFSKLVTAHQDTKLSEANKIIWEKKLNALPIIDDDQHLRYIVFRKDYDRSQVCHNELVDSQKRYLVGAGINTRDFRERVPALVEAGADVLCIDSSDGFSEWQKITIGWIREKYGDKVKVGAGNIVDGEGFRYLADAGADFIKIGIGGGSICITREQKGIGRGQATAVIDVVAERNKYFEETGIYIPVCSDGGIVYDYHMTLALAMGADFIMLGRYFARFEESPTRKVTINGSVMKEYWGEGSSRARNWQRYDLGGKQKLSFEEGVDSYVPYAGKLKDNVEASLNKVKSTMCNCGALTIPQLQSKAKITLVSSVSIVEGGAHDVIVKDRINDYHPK", "assay": "biochemical", "type": "biochemical"}, "[2]": {"biological_target": "CpIMPDH (Cryptosporidium parvum, UniProt Q8T6T2)", "sequence (Q8T6T2 whole entry)": "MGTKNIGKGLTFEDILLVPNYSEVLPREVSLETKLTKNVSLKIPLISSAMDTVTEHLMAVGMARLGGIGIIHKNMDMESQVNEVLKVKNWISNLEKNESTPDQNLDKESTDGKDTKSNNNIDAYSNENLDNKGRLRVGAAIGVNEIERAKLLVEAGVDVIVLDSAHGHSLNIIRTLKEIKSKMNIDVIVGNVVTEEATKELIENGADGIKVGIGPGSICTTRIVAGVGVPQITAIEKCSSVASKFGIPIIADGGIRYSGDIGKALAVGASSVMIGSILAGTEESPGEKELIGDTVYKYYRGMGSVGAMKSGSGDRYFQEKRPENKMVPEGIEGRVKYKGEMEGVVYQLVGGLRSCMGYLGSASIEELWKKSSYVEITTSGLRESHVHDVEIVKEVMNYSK", "assay": "biochemical", "type": "biochemical"}, "[3]": {"biological_target": "T1, CjIMPDH (Campylobacter jejuni, UniProt Q0P9J4)", "assay": "biochemical", "type": "biochemical"}, "[4]": {"biological_target": "T2, BaIMPDH (Bacillus anthracis, UniProt A0A6L8P2U9)", "T2 sequence (A0A6L8P2U9 1-487)": "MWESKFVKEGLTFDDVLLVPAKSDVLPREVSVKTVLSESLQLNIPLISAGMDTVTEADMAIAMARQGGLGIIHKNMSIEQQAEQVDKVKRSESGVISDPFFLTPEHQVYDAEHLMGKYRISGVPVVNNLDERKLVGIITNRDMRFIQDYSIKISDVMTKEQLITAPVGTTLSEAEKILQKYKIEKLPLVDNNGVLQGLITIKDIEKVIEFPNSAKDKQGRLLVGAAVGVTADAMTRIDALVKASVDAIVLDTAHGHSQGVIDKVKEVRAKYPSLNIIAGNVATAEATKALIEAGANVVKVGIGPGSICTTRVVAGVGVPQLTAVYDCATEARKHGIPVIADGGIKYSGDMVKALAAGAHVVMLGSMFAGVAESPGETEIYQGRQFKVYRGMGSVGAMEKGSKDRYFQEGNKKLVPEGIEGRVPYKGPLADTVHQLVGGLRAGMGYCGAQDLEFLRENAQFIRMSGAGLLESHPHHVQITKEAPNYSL", "assay": "biochemical", "type": "biochemical"}, "[5]": {"biological_target": "CjIMPDHΔS (IMPDH from C. jejuni, CBS domain V92-T195 deleted and replaced with G) (Campylobacter jejuni) (UniProt Q0P9J4)", "assay": "crystal structure"}, "[6]": {"biological_target": "human IMPDH2 (Homo sapiens, UniProt P12268)", "assay": "IMPDH steady-state kinetics and inhibition", "type": "biochemical"}, "[7]": {"biological_target": "T2, BaIMPDH", "type": "biochemical"}, "[8]": {"biological_target": "T2, BaIMPDH", "type": "binding", "details": "read-out: calculated value of Ki"}, "[9]": {"biological_target": "T2, BaIMPDH", "type": "biochemical", "remark": "listed apart in the source"}, "[10]": {"biological_target": "T1, CjIMPDH", "assay": "Product determination and stoichiometry of inhibition", "type": "biochemical"}, "[11]": {"biological_target": "partially purified rat IMPDH", "details": "mixed inhibition; cited from earlier work"}, "[12]": {"details": "read-out: Km, NAD, varying NAD+, saturating IMP, 25 °C, pH 8"}, "[13]": {"details": "uncompetitive substrate inhibition by NAD+"}, "[14]": {"details": "read-out: Kis, OxMP, versus IMP, competitive, NAD+ 500 μM"}}, "note": "Where two headings read alike, the source gives them in different places.", "data": [{"compound": "Nc1nc2c(ncn2[C@@H]2O[C@H](COP(=O)(O)O)[C@@H](O)[C@H]2O)c(=O)[nH]1", "note": "[GMP, guanosine 5’-monophosphate, reference compound]", "values": [{"measurement": "Ki", "setting": "[1]", "value": "24 ± 2", "unit": "µM"}, {"measurement": "Ki", "setting": "[2]", "value": "21 ± 1", "unit": "µM"}, {"measurement": "Ki", "setting": "[3]", "value": "8 ± 0.9", "unit": "µM"}, {"measurement": "Ki", "setting": "[4]", "value": "115 ± 7", "unit": "µM"}]}, {"compound": "CjIMPDHΔS (IMPDH from C. jejuni, CBS domain V92-T195 deleted and replaced with G) (from UniProt Q0P9J4) (enzyme)", "values": [{"measurement": "stoichiometry N", "setting": "[5]", "value": 4}]}, {"compound": "NC(=O)c1ccc[n+]([C@@H]2O[C@H](COP(=O)([O-])OP(=O)(O)OC[C@H]3O[C@@H](n4cnc5c(N)ncnc54)[C@H](O)[C@@H]3O)[C@@H](O)[C@H]2O)c1", "note": "[NAD]", "values": [{"measurement": "Km", "setting": "[6]; [12]", "value": "7 ± 1.7", "unit": "µM"}, {"measurement": "Kii, NAD", "setting": "[6]; [13]", "value": "0.49 ± 0.12", "unit": "mM"}, {"measurement": "Km", "setting": "[1]; [12]", "value": "80 ± 3", "unit": "µM"}, {"measurement": "Kii, NAD", "setting": "[1]; [13]", "value": "5.4 ± 0.3", "unit": "mM"}, {"measurement": "Km", "setting": "[2]; [12]", "value": "45 ± 3", "unit": "µM"}, {"measurement": "Kii, NAD", "setting": "[2]; [13]", "value": "6.5 ± 0.5", "unit": "mM"}, {"measurement": "Km", "setting": "[3]; [12]", "value": "66 ± 5", "unit": "µM"}, {"measurement": "Kii, NAD", "setting": "[3]; [13]", "value": "4.1 ± 0.3", "unit": "mM"}, {"measurement": "Kii, NAD", "setting": "[4]", "value": "8.1 ± 0.5", "unit": "mM"}, {"measurement": "Km", "setting": "[4]; read-out: Km, NAD, pH 8", "value": "700 ± 40", "unit": "µM"}]}, {"compound": "Nc1nc2c(ncn2[C@@H]2O[C@H](COP(=O)(O)O)[C@@H](O)[C@H]2O)c(=O)o1", "note": "[OxMP, oxanosine monophosphate]", "values": [{"measurement": "Kis, GMP /Kis, OxMP", "setting": "[6]; ratio of Kis values", "value": 280}, {"measurement": "Ki", "setting": "[6]; [14]", "value": "0.13 ± 0.02", "unit": "µM"}, {"measurement": "Kis, GMP /Kis, OxMP", "setting": "[1]; ratio of Kis values", "value": 140}, {"measurement": "Ki", "setting": "[1]; [14]", "value": "0.17 ± 0.02", "unit": "µM"}, {"measurement": "Kis, GMP /Kis, OxMP", "setting": "[2]; ratio of Kis values", "value": 240}, {"measurement": "Ki", "setting": "[2]; [14]", "value": "0.09 ± 0.01", "unit": "µM"}, {"measurement": "Kis, GMP /Kis, OxMP", "setting": "[3]; ratio of Kis values", "value": 160}, {"measurement": "Ki", "setting": "[3]; [14]", "value": "0.051 ± 0.006", "unit": "µM"}, {"measurement": "Kis, GMP /Kis, OxMP", "setting": "[4]", "value": 340}, {"measurement": "Ki", "setting": "[4]; read-out: Kis, OxMP", "value": "0.34 ± 0.05", "unit": "µM"}, {"measurement": "dissociation rate constant koff", "setting": "[7]", "value": 0.0019, "unit": "s⁻¹"}, {"measurement": "Ki", "setting": "[8]", "value": 0.33, "unit": "µM"}, {"measurement": "hydrolysis of OxMP to UrMP by the enzyme", "setting": "[9]", "value": "no free UrMP was detected"}, {"measurement": "stoichiometry of inhibition", "setting": "[9]", "value": 1, "unit": "OxMP/active site"}, {"measurement": "hydrolysis of OxMP to UrMP by the enzyme", "setting": "[10]; enzyme and OxMP in a 1:1 ratio for 4 h, LC-MS", "value": "no free UrMP was detected"}, {"measurement": "stoichiometry of inhibition", "setting": "[10]; incubated 5 min, initial rates", "value": 1, "unit": "OxMP/active site"}, {"measurement": "Ki", "setting": "[11]", "value": "1 to 5", "unit": "µM"}]}]}
